According to ChEMBL document CHEMBL3091367, “Synthesis and evaluation of the apoptosis inducing and CT DNA interaction properties of a series of 4β-carbamoyl 4'-O-demethylepipodophyllotoxins” (Eur J Med Chem, 2013):

What was measured:
Type in all cases: functional, cell-based
[1] = Cytotoxicity against human HCT8 cells after 48 hrs by MTT assay; conditions: HCT-8, 48 h
HeLa = experiment: Cytotoxicity against human HeLa cells after 48 hrs by MTT assay
HL-60 = experiment: Cytotoxicity against human HL60 cells after 48 hrs by cell counting kit-8 assay; conditions: HL-60, 48 h
A549 = experiment: Cytotoxicity against human A549 cells after 48 hrs by MTT assay; conditions: A549, 48 h

Structure (SMILES) | IC50 [1] [nM] | IC50 (HeLa) [nM] | IC50 (HL-60) [nM] | IC50 (A549) [nM]
COc1cc([C@@H]2c3cc4c(cc3[C@@H](OC(=O)NC3CCCCC3)[C@H]3COC(=O)[C@H]23)OCO4)cc(OC)c1O | 1240 | 5400 | 270 | 26100
COc1cc([C@@H]2c3cc4c(cc3[C@@H](OC(=O)NC3CC3)[C@H]3COC(=O)[C@H]23)OCO4)cc(OC)c1O | 80 | 10800 | 160 | 18300
COc1cc([C@@H]2c3cc4c(cc3[C@@H](OC(=O)N[C@@H](C)C(=O)N3CCN(c5ccc([N+](=O)[O-])cc5)CC3)[C@H]3COC(=O)[C@H]23)OCO4)cc(OC)c1O | 710 | > 100000 | 130 | 19000
COc1cc([C@@H]2c3cc4c(cc3[C@@H](OC(=O)N[C@H](CCSC)C(=O)N3CCN(c5ccc([N+](=O)[O-])cc5)CC3)[C@H]3COC(=O)[C@H]23)OCO4)cc(OC)c1O | 850 | > 100000 | 20 | > 100000
COc1cc([C@@H]2c3cc4c(cc3[C@@H](OC(=O)N3CCN(C5CCCC5)CC3)[C@H]3COC(=O)[C@H]23)OCO4)cc(OC)c1O | 1620 | 4400 | < 10 | 3890
COc1cc([C@@H]2c3cc4c(cc3[C@@H](OC(=O)N3CCN(c5ccc([N+](=O)[O-])cc5)CC3)[C@H]3COC(=O)[C@H]23)OCO4)cc(OC)c1OC(=O)N1CCN(c2ccc([N+](=O)[O-])cc2)CC1 | 10 | – | 350 | 56900
COc1cc([C@@H]2c3cc4c(cc3[C@@H](O[C@@H]3O[C@@H]5CO[C@@H](C)O[C@H]5[C@H](O)[C@H]3O)[C@H]3COC(=O)[C@H]23)OCO4)cc(OC)c1O [ETOPOSIDE] | – | 2910 | – | –
COc1cc([C@@H]2c3cc4c(cc3[C@@H](OC(=O)N3CCOCC3)[C@H]3COC(=O)[C@H]23)OCO4)cc(OC)c1O | 150 | 8590 | 10 | 8550
COc1cc([C@@H]2c3cc4c(cc3[C@@H](OC(=O)NC3CCCC3)[C@H]3COC(=O)[C@H]23)OCO4)cc(OC)c1O | 330 | 3750 | 210 | 4540
